Here are results for 55 molecules from patent US8946266B2, “Substituted triazole and imidazole derivatives as gamma secretase modulators” (Janssen Pharmaceuticals, Inc., priority 2009, dated 2015).

Read-outs that look alike come from different tables or passages of the source.

Assay [1] has as its system Aβtotal. The assay is described as follows: γ-secretase-modulating activity, Method 2: Aβtotal Alphalisa in supernatant of SKNBE2 cells carrying APP 695-wild type (Table 3b). Format: cell-based. As to conditions: overnight, read-out: IC50 Aβtot. Put shortly: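 SKNBE2 cells expressing wild-type APP 695 were incubated overnight at 37 °C, 5% CO2 with test compound at a range of concentrations. Aβtotal in supernatant was measured by AlphaLISA sandwich (N-terminal JRF/AβN/25 acceptor, biotinylated mid-region 4G8 donor); IC50 from 4-parameter fit of percent control versus log concentration.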
A general note: Bead proximity is the source of the signal in Alpha formats.

Assay [2] deals with Aβ42. The assay can be described thus: γ-secretase-modulating activity, Method 2: Aβ42 Alphalisa in supernatant of SKNBE2 cells carrying APP 695-wild type (Table 3b). The format is cell-based. The following applies: overnight. Put shortly:
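SKNBE2 cells expressing wild-type APP695 were incubated overnight at 37° C. with test compound. Secreted Aβ42 was then measured by AlphaLISA, using a C-terminal Aβ42 antibody paired with an N-terminal Aβ antibody. IC50 came from a 4-parameter fit of percent of compound-free control.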

The IC50 is the concentration needed to halve the response being measured. `COc1ccc(Cl)cc1Nc1nc(-c2ccc(-n3cnc(C)c3)c(OC)c2)nn1C` [Compound 192]: the 50% inhibitory concentration (IC50) turned out to be 9550 nM in assay [1] and 41 nM in assay [2].

In the case of `COc1cc(Nc2nc(-c3ccc(-n4cnc(C)c4)c(OC)c3)nn2C)ccc1F` [Compound 193], the concentration for half-maximal inhibition (IC50) is more than 10000 nM in assay [1] and 63 nM in assay [2].

On to `COc1cc(-c2nc(Nc3cccc(Cl)c3OC)n(C)n2)ccc1-n1cnc(C)c1` [Compound 194], for which the figures for the half-maximal inhibitory concentration (IC50) in assay [1] and in assay [2] were more than 10000 nM and 65 nM, respectively.

In the case of `COc1ccc(F)c(Nc2nc(-c3ccc(-n4cnc(C)c4)c(OC)c3)nn2C)c1` [Compound 195], the values for the IC50 in assay [1] and in assay [2] were more than 10000 nM and 95 nM, respectively.

With `COc1cc(-c2nc(Nc3c(F)ccc(OC)c3F)n(C)n2)ccc1-n1cnc(C)c1` [Compound 196], the IC50 in assay [1] was more than 10000 nM; in assay [2], 129 nM.

Regarding `COc1ccc(Nc2nc(-c3ccc(-n4cnc(C)c4)c(OC)c3)nn2C)c(F)c1` [Compound 197], the IC50 in assay [1] was more than 10000 nM; in assay [2], 135 nM.

`COc1ccc(C(F)(F)F)cc1Nc1nc(-c2ccc(-n3cnc(C)c3)c(OC)n2)nn1C` [Compound 201]: the values for the IC50 in assay [1] and in assay [2] were more than 15000 nM and 15 nM, respectively.

As to `COc1cc(Nc2nc(-c3ccc(-n4cnc(C)c4)c(OC)c3)nn2C)c(F)c(C(F)(F)F)c1` [Compound 202], the IC50 in assay [1] is more than 10000 nM; in assay [2], 25 nM.

On to `CCOc1ccccc1Nc1nc(-c2ccc(-n3cnc(C)c3)c(OC)c2)nn1C` [Compound 205], for which the results for the IC50 in assay [1] and in assay [2] were more than 10000 nM and 100 nM, respectively.

Regarding `Cc1cn(-c2ccc(-c3nc(Nc4cccc(C(F)(F)F)c4)n(C)n3)cc2)cn1` [Compound 206], the IC50 in assay [1] is 8130 nM; in assay [2] it was 166 nM.

As for `Cc1cn(-c2ccc(-c3nc(Nc4cc(C(F)(F)F)ccc4F)n(C)n3)cc2)cn1` [Compound 207], the IC50 is more than 10000 nM in assay [1] and 123 nM in assay [2].

`COc1cc(-c2nc(Nc3c(F)cccc3C(F)(F)F)n(C)n2)ccc1-n1cnc(C)c1` [Compound 208]: the IC50 in assay [1] was more than 10000 nM; in assay [2], 178 nM.

With `COCCn1nc(-c2ccc(-n3cnc(C)c3)c(OC)c2)nc1Nc1cc(C(F)(F)F)ccc1F` [Compound 209], the IC50 in assay [1] was found to be 9550 nM; in assay [2], 52 nM.

For the molecule `COc1cc(-c2nc(Nc3cc(C(F)(F)F)cc(Cl)c3F)n(C)n2)ccc1-n1cnc(C)c1` [Compound 210], the IC50 in assay [1] is more than 10000 nM; in assay [2], 35 nM.

Take `COc1cc(-c2nc(Nc3cc(C(F)(F)F)c(Cl)cc3F)n(C)n2)ccc1-n1cnc(C)c1` [Compound 212]: the IC50 in assay [1] was more than 10000 nM; in assay [2] it was 17 nM.

Regarding `COc1cc(F)ccc1Nc1nc(-c2ccc(-n3cnc(C)c3)c(OC)c2)nn1C` [Compound 215], the IC50 in assay [1] is more than 10000 nM; in assay [2] it was 269 nM.

As to `COc1cc(F)c(F)c(Nc2nc(-c3ccc(-n4cnc(C)c4)c(OC)c3)nn2C)c1` [Compound 216], the IC50 in assay [1] was more than 10000 nM; in assay [2], 76 nM.

For `COc1ccc(C(F)(F)F)c(Nc2nc(-c3ccc(-n4cnc(C)c4)c(OC)c3)nn2C)c1` [Compound 218], the figures for the IC50 in assay [1] and in assay [2] were more than 10000 nM and 14 nM, respectively.

Consider `COc1cc(-c2nc(Nc3cccc(F)c3OC)n(C)n2)ccc1-n1cnc(C)c1` [Compound 219], for which the IC50 is more than 10000 nM in assay [1] and 91 nM in assay [2].

Regarding `COc1cc(F)c(C(F)(F)F)cc1Nc1nc(-c2ccc(-n3cnc(C)c3)c(OC)c2)nn1C` [Compound 220], the IC50 in assay [1] is more than 10000 nM; in assay [2], 63 nM.

As to `COc1cc(-c2nc(Nc3cc(NC(C)=O)ccc3F)n(C)n2)ccc1-n1cnc(C)c1` [Compound 221], the values for the 50% inhibitory concentration (IC50) in assay [1] and in assay [2] were more than 10000 nM and 708 nM, respectively.

In the case of `COc1cc(-c2nc(Nc3cccc(NC(C)=O)c3)n(C)n2)ccc1-n1cnc(C)c1` [Compound 222], the IC50 is more than 10000 nM in assay [1] and 1150 nM in assay [2].

For the molecule `COc1cc(-c2nc(Nc3cc(C(C)=O)ccc3F)n(C)n2)ccc1-n1cnc(C)c1` [Compound 223], the IC50 was more than 10000 nM in assay [1] (Homo sapiens) and 126 nM in assay [2] (Homo sapiens).

As for `COc1cc(-c2nc(Nc3cccc(C#N)c3)n(C)n2)ccc1-n1cnc(C)c1` [Compound 224], the IC50 in assay [1] was more than 10000 nM; in assay [2], 646 nM.

For the molecule `COc1cc(-c2nc(Nc3ccc(C#N)cc3)n(C)n2)ccc1-n1cnc(C)c1` [Compound 225], the figures for the IC50 in assay [1] and in assay [2] were more than 10000 nM and 1440 nM, respectively.

Take `COc1cc(-c2nc(Nc3cc(C#N)ccc3F)n(C)n2)ccc1-n1cnc(C)c1` [Compound 226]: the IC50 in assay [1] was more than 10000 nM; in assay [2] it was 417 nM.

Turning to `COc1cc(-c2nc(Nc3ccc(C#N)cc3F)n(C)n2)ccc1-n1cnc(C)c1` [Compound 227], the results for the IC50 in assay [1] and in assay [2] were 891 nM and 676 nM, respectively.

For `COc1cc(-c2nc(Nc3ccc(F)cc3C#N)n(C)n2)ccc1-n1cnc(C)c1` [Compound 228], the IC50 in assay [1] was more than 10000 nM; in assay [2] it was 4470 nM.

Take `COc1cc(-c2nc(Nc3cccc(C#N)c3F)n(C)n2)ccc1-n1cnc(C)c1` [Compound 229]: the IC50 in assay [1] is more than 10000 nM; in assay [2] it was 295 nM.

Take `COc1cc(-c2nc(Nc3ccc(C#N)cc3C(F)(F)F)n(C)n2)ccc1-n1cnc(C)c1` [Compound 230]: the half-inhibitory concentration (IC50) in assay [1] was more than 10000 nM; in assay [2] it was 302 nM.

As for `COc1cc(-c2nc(Nc3ccc4c(c3)OC(F)(F)O4)n(C)n2)ccc1-n1cnc(C)c1` [Compound 231], the IC50 in assay [1] came out at 5890 nM; in assay [2], 56 nM.

Consider `COc1cc(-c2nc(N(C(C)=O)c3cc(F)c(F)cc3I)n(C)n2)ccc1-n1cnc(C)c1` [Compound 232], for which the values for the IC50 in assay [1] (Homo sapiens) and in assay [2] (Homo sapiens) were more than 10000 nM and 1410 nM, respectively.

Regarding `COc1cc(-c2nc(Nc3cccnc3C(F)(F)F)n(C)n2)ccc1-n1cnc(C)c1` [Compound 233], the figures for the IC50 in assay [1] and in assay [2] were more than 10000 nM and 603 nM, respectively.

As for `COc1cc(-c2nc(Nc3ccnc(Cl)c3)n(C)n2)ccc1-n1cnc(C)c1` [Compound 234], the half-inhibitory concentration (IC50) in assay [1] was more than 10000 nM; in assay [2] it was 955 nM.

For `COc1cc(-c2nc(Nc3ccnc(C(F)(F)F)c3)n(C)n2)ccc1-n1cnc(C)c1` [Compound 235], the IC50 in assay [1] is more than 10000 nM; in assay [2], 132 nM.

Turning to `COc1cc(-c2nc(Nc3cccnc3)n(C)n2)ccc1-n1cnc(C)c1` [Compound 237], the concentration for half-maximal inhibition (IC50) in assay [1] is more than 10000 nM; in assay [2], 3160 nM.

As to `COc1cc(-c2nc(Nc3ccc(C)nc3)n(C)n2)ccc1-n1cnc(C)c1` [Compound 238], the IC50 in assay [1] is more than 10000 nM; in assay [2] it was 1580 nM.

Take `COc1cc(-c2nc(Nc3ccnc(C)c3)n(C)n2)ccc1-n1cnc(C)c1` [Compound 239]: the IC50 in assay [1] is more than 10000 nM; in assay [2], 4470 nM.

On to `COc1cc(-c2nc(Nc3ncccc3C(F)(F)F)n(C)n2)ccc1-n1cnc(C)c1` [Compound 240], for which the half-maximal inhibitory concentration (IC50) in assay [1] was more than 10000 nM; in assay [2], 794 nM.

Consider `COc1cc(-c2nc(Nc3cccnc3OC)n(C)n2)ccc1-n1cnc(C)c1` [Compound 241], for which the results for the IC50 in assay [1] and in assay [2] were more than 10000 nM and 741 nM, respectively.

As to `COc1cc(-c2nc(Nc3ccc(=O)n(C)c3)n(C)n2)ccc1-n1cnc(C)c1` [Compound 242], the IC50 in assay [1] and in assay [2] was more than 10000 nM throughout.

For the molecule `COc1cc(-c2nc(Nc3cccn(C)c3=O)n(C)n2)ccc1-n1cnc(C)c1` [Compound 243], the IC50 in assay [1] was more than 10000 nM; in assay [2] it was 8320 nM.

For `COc1cc(-c2nc(NCc3ccccc3)n(C)n2)ccc1-n1cnc(C)c1` [Compound 245], the IC50 in assay [1] is more than 10000 nM; in assay [2] it was 646 nM.

Consider `COc1cc(-c2nc(Oc3cccc(C(F)(F)F)c3)n(C)n2)ccc1-n1cnc(C)c1` [Compound 246], for which the IC50 in assay [1] is 9770 nM; in assay [2], 269 nM.

Turning to `COc1cc(-c2nc(Oc3ccccc3Cl)n(C(C)C)n2)ccc1-n1cnc(C)c1` [Compound 247], the IC50 in assay [1] is 8130 nM; in assay [2], 363 nM.

Turning to `COc1cc(-c2nc(Oc3ccccc3Cl)n(C)n2)ccc1-n1cnc(C)c1` [Compound 248], the IC50 in assay [1] was more than 10000 nM; in assay [2], 389 nM.

Take `COc1cc(-c2nc(Sc3cccc(C(F)(F)F)c3)n(C)n2)ccc1-n1cnc(C)c1` [Compound 249]: the IC50 in assay [1] (Homo sapiens) was more than 10000 nM; in assay [2] (Homo sapiens), 646 nM.

`COc1cc(-c2nc3n(n2)CCCC3c2cccc(F)c2)ccc1-n1cnc(C)c1` (centres unmarked) [Compound 252]: the IC50 is more than 10000 nM in assay [1] and 240 nM in assay [2].

For the molecule `COc1nc(-c2nc3n(n2)CCCC3c2ccc(F)cc2)ccc1-n1cnc(C)c1` (centres unmarked) [Compound 253], the figures for the IC50 in assay [1] and in assay [2] were more than 10000 nM and 170 nM, respectively.

Consider `COc1cc(-c2nc3n(n2)CCC[C@@H]3c2ccccc2Cl)ccc1-n1cnc(C)c1` [Compound 254], for which the figures for the IC50 in assay [1] and in assay [2] were more than 10000 nM and 234 nM, respectively.

In the case of `COc1cc(-c2nc3n(n2)CCCC3c2ccccc2Cl)ccc1-n1cnc(C)c1` (centres unmarked) [Compound 256], the IC50 in assay [1] was more than 10000 nM; in assay [2] it was 21 nM.

With `COc1cc(-c2nc3n(n2)CCCC3c2ccccc2F)ccc1-n1cnc(C)c1` (centres unmarked) [Compound 257], the IC50 in assay [1] was more than 10000 nM; in assay [2], 148 nM.

As to `COc1cc(-c2nc3n(n2)CCCC3c2ccc(F)cc2F)ccc1-n1cnc(C)c1` (centres unmarked) [Compound 259], the IC50 is more than 10000 nM in assay [1] and 158 nM in assay [2].

In the case of `COc1nc(-c2nc3n(n2)CCC[C@@H]3c2ccccc2C(F)(F)F)ccc1-n1cnc(C)c1` [Compound 262], the IC50 in assay [1] is more than 10000 nM; in assay [2], 324 nM.

As to `COc1cc(-c2nc3n(n2)CCCC3c2ccccc2OC(F)(F)F)ccc1-n1cnc(C)c1` (centres unmarked) [Compound 266], the IC50 in assay [1] was more than 3000 nM; in assay [2], 74 nM.
